Reference: patent US6130227A, “7-Substituted camptothecin derivatives and methods for inhibiting the growth of tumor cells therewith” (priority 1996, dated 2000)

How the values were obtained:
[1] = system: NCI-H460 human lung tumor xenograft growing i.p.; test: Survival of nude mice bearing i.p. NCI-H460 tumor xenograft; assay type: in vivo
Excerpt: A preclinical efficacy study was designed to evaluate the antitumor activity of the compounds of the present invention in comparison with topotecan (a first generation camptothecin already in clinical trials) as reference drug. The human tumor line NCI-H460, a non small cell lung carcinoma, was chosen because of the high expression of topoisomerase I, the known target of camptothecin drugs. This tumor model is relatively resistant to in vivo treatment with conventional cytotoxic agents (e.g., doxorubicin, cisplatin). Tumor cells were injected i.p. into nude mice (2.5×10^6 cell/mouse) of about 10 weeks and 3 days later the drugs were injected in the peritoneal cavity (10 ml/kg b.w.) to allow a direct contact of the drugs with tumor cells. Both topotecan and the compound of formula (I) described in Example 1 below, were delivered q4dx4 times. This schedule has been reported as optimal for camptothecin drugs in other preclinical studies. Mice were observed daily for death. The antitumor activity of the drugs was expressed as T/C %, i.e. the ratio between the median survival time of the drug-treated mice (T) and survival of the control untreated mice (C)×100. Treated mice, dead before the first control mouse or shortly after treatment with reduced body weight, were considered dead for drug toxicity. Mice still alive over 100 days after tumor cell inoculum were considered as long-term survivors (LTS). […]

[2] = Antitumor activity by the oral route; assay type: in vivo
[3] = Experiment 1, 6.6 mg/kg i.p. q4d x 4
[4] = Experiment 1, 10 mg/kg i.p. q4d x 4
[5] = Experiment 1, 10 mg/kg i.p. q4d x 4, from day 3
[6] = Experiment 2, 10 mg/kg i.p. q4d x 4
[7] = Experiment 2, 10 mg/kg i.p. q4d x 4, from day 3
[8] = Experiment 2, 12 mg/kg i.p. q4d x 4
[9] = Experiment 2, 12 mg/kg i.p. q4d x 4, from day 3
[10] = Experiment 2, 14.4 mg/kg i.p. q4d x 4
[11] = Experiment 2, 14.4 mg/kg i.p. q4d x 4, from day 3

## CC[C@@]1(O)C(=O)OCc2c1cc1n(c2=O)Cc2c-1nc1ccccc1c2C#N [Example 1, 20S-camptothecin-7-carbonitrile]
[1]; [3]
  LTS (100 days): 2/8
  No. of toxic/total no. mice: 0/8
[1]; Experiment 1, 6.6 mg/kg i.p. q4d x 4, from day 3
  % T/C: 157%
[1]; [4]
  LTS (100 days): 3/8
  No. of toxic/total no. mice: 0/8
[1]; [5]
  % T/C: 258%
[1]; [6]
  LTS (100 days): 1/7
  No. of toxic/total no. mice: 0/7
[1]; [7]
  % T/C: 233%
[1]; [8]
  LTS (100 days): 1/7
  No. of toxic/total no. mice: 0/7
[1]; [9]
  % T/C: 200%
[1]; [10]
  LTS (100 days): 2/7
[1]; [11]
  % T/C: 277%
[1]; Experiment 2, 14.4 mg/kg i.p. q4d x 4, 14.4 mg/kg
  No. of toxic/total no. mice: 1/7
[1]; Experiment 2, 14.4 mg/kg i.p. q4d x 4, listed as CPT83, 14.4 mg/kg
  No. of toxic/total no. mice: 1
[1]; NCI-H460 tumor xenograft
  Tolerability compared with topotecan: better tolerability than topotecan
[1]; at all doses tested
  T/C % values: higher than 200%
[1]; experiment 1, slowly-growing tumor
  Drug efficacy compared with topotecan: superior to that of topotecan
[1]; experiment 2, rapidly growing tumor
  Efficacy in terms of T/C % compared with topotecan: comparable to that of topotecan
[2]; oral
  Activity by the oral route: active
[2]; oral CPT83 vs topotecan i.v. with optimal treatment schedule
  Activity compared with topotecan: more active than topotecan

## CC[C@@]1(O)C(=O)OCc2c1cc1n(c2=O)Cc2cc3c(CN(C)C)c(O)ccc3nc2-1 [Topotecan, reference compound]
[1]; [4]
  LTS (100 days): 2/8
  No. of toxic/total no. mice: 0/8
[1]; [5]
  % T/C: 215%
[1]; [6]
  LTS (100 days): 1/7
[1]; [7]
  % T/C: 261%
[1]; [8]
  LTS (100 days): 0/7
  No. of toxic/total no. mice: 4/7
[1]; [9]
  % T/C: 77%
[1]; [10]
  LTS (100 days): 0/7
  No. of toxic/total no. mice: 5/7
[1]; [11]
  % T/C: 77%
